{"source": "paper PMC3997483", "about": "“Aminostyrylbenzofuran Directly Reduces Oligomeric Amyloid-β and Reverses Cognitive Deficits in Alzheimer Transgenic Mice” (PLoS ONE, 2014)", "key": {"[1]": {"experiment": "Stability in PBS buffer (plasma stability study)", "type": "in vitro ADME", "conditions": "37 °C"}, "SD rats": {"system": "SD rats", "experiment": "Single dose oral toxicity study", "type": "in vivo", "conditions": "rats", "experimental": "(§1) KMS88009 was orally administered by gavage at dose levels of 0 (vehicle), 1,000 and 2,000 mg/kg. Each group consisted of 3 rats. Vehicle was DMSO/tween-20/saline (3.3∶3.3∶93.4) mixture. Administration volume of vehicle and KMS88009 was 10 mL/kg. Mortality, physical abnormalities and signs of pain/distress were daily observed in all animals. Body weight of each animal was measured before the administration and on the 1st, 4th, 8th, 11th and 14th days.\n(§2) All data for single and 2-week repeated oral dose toxicity studies were expressed as the mean ± SD Difference between control and treated groups were evaluated with one-way analysis of variance (ANOVA) followed by Dunnett's test. Value P<0.05 was taken as being statistically significant. Statistical analyses were performed using GraphPad Prism software (USA)."}, "[2]": {"experiment": "Single dose oral toxicity study", "type": "in vivo", "conditions": "SD, rat, in vivo, po", "experimental": "as §1, §2"}, "APP/PS1 TG mice": {"system": "APP/PS1 TG mice", "experiment": "Morris water maze, prophylactic trial", "type": "in vivo, mouse", "conditions": "for swimming time % within the target quadrant (probe trial): APP/PS1 TG mice, vehicle TG 23.4%, WT 44.3%; for Latency (hidden platform): TG mice", "experimental": "Behavioral tests were performed in the following sequence: Y-maze (day 1), Morris water maze (day 4 to 12) and contextual fear conditioning (day 26 to 27). To reduce stress, contextual fear conditioning was carried out 2 weeks after the Morris water maze task. In the therapeutic trial, APP/PS1 TG mice were treated with KMS88009 (30 mg/kg/day) for 3 months from 9 to 12 months of age. Y-maze tests short-term spatial working memory. Y-maze is a 3-armed (40 L×10 W×12 H cm) horizontal maze in which the arms are symmetrically disposed at 120° angles from each other. Mice were placed at the end of one arm and allowed to move freely through the maze during a 5-min session. Arm entry was considered completed when the hind paws of the mouse were completely placed in the arm. Alternation was defined as successive entries into the 3 arms on overlapping triplet sets. The series of arm entries was recorded via video recorders. The percentage of alternation was defined according to the following equation: % alternation = [(number of alternations)/(total arm entries - 2)] ×100. Mice performing fewer than 7 alternations in 5 min were excluded from the subsequent analysis to accurately determine alternation scores. Morris water maze was used to measure spatial learning and memory. A stainless pool apparatus with a diameter of 120 cm was used. A clear escape platform (circle, 12×12 cm) was located 1.0 cm below (hidden) the water surface containing white nontoxic paint. The temperature of water was kept constant throughout the experiment (21±1°C). The visual cues, for mice to recognize the environment and direction, are placed on the walls around the pool. The training was consisted of 8 consecutive days of testing with 4 trials per day. When a mouse was located on the escape platform, it was permitted to remain on the platform for 15 sec. […] Then the subject was returned to its home cage and allowed to dry up after each trial. The platform location was kept constant and the starting position was varied. Each mouse was placed in the water with their nose pointing toward the wall at one of the starting points in a random manner. During each trial session, the time taken to find the hidden platform (latency) was recorded using a video camera-based Ethovision System (Nodulus, Nertherlands). On the 9th day, each mouse was tested on a probe trial. The platform was removed from pool and the mice were allowed to swim for 60 sec to search. Swimming time was recorded during mice were in the pool quadrant where the platform had been previously located. Mice, which float or jump from platform, were eliminated from the experiment since these responses may be incompatible with the behaviors needed to locate and learn the platform position. In addition, animals with difficulty in swimming were also excluded from this study. Fear conditioning task was measured to test the ability to learn and remember an association between an aversive experience and environmental cues. Contextual fear conditioning evaluation was performed using a fear-conditioning chamber (Courlbourn, USA) equipped with a computer-controlled fear conditioning system (FreActimetrics, USA). On the first day of training, each mouse was placed in the conditioning chamber and left to adjust for 2 min. Fear conditioning test was performed with conditional stimulus (CS) of sound (75 dB) for 20 sec followed by unconditional stimulus (US) of electric foot-shock (0.5 mA) for the last 2 sec in CS. After 1 min, the subject was returned to its home cage. After 24 hr, retention test was performed. […] Freezing response was measured without CS or US. Freezing behavior was defined as the complete absence of any movement except for respiration and heartbeat. Animals with no response to the foot-shock during training were excluded from the analysis. Data analyses including recordings of all behavioral responses were performed by keeping research colleagues blind."}}, "note": "Marks after values point to notes of the source that are not given here."}
{"compound": "COc1ccc2cc(C=Cc3ccc(N(C)C)cc3)oc2c1", "note": "[KMS88009, 6-methoxy-2-(4-dimethylaminostyryl) benzofuran]", "values": [{"measurement": "Parent compound remaining", "setting": "[1]; 0.5 hr", "result": 99.1, "unit": "%"}, {"measurement": "Parent compound remaining", "setting": "[1]; 1 hr", "result": 88.6, "unit": "%"}, {"measurement": "Parent compound remaining", "setting": "[1]; 2 hr", "result": 100.0, "unit": "%"}, {"measurement": "Parent compound remaining", "setting": "[1]; 6 hr", "result": 100.0, "unit": "%"}, {"measurement": "Mortality (dead animals / total number of animals)", "setting": "SD rats; single PO 1,000 mg/kg", "result": "0 / 3 ^a"}, {"measurement": "Mortality (dead animals / total number of animals)", "setting": "SD rats; single PO 2,000 mg/kg", "result": "0 / 3"}, {"measurement": "LD50 at 14 days", "setting": "[2]", "result": "> 2000", "unit": "mg/kg"}, {"measurement": "swimming time % within the target quadrant (probe trial)", "setting": "APP/PS1 TG mice; PO 10 mg/kg/day", "result": 40.4, "unit": "%"}, {"measurement": "swimming time % within the target quadrant (probe trial)", "setting": "APP/PS1 TG mice; PO 30 mg/kg/day", "result": 39.7, "unit": "%"}, {"measurement": "swimming time % within the target quadrant (probe trial)", "setting": "APP/PS1 TG mice; PO 100 mg/kg/day", "result": 37.6, "unit": "%"}, {"measurement": "Latency (hidden platform)", "setting": "APP/PS1 TG mice; Day 1, dose group + (10 mg/kg/day)", "result": "50.5 ± 2.1", "unit": "s"}, {"measurement": "Latency (hidden platform)", "setting": "APP/PS1 TG mice; Day 1, dose group ++ (30 mg/kg/day)", "result": "49.2 ± 2.4", "unit": "s"}, {"measurement": "Latency (hidden platform)", "setting": "APP/PS1 TG mice; Day 1, dose group +++ (100 mg/kg/day)", "result": "48.3 ± 3.0", "unit": "s"}, {"measurement": "Latency (hidden platform)", "setting": "APP/PS1 TG mice; Day 2, dose group + (10 mg/kg/day)", "result": "39.8 ± 2.7", "unit": "s"}, {"measurement": "Latency (hidden platform)", "setting": "APP/PS1 TG mice; Day 2, dose group ++ (30 mg/kg/day)", "result": "38.3 ± 3.0", "unit": "s"}, {"measurement": "Latency (hidden platform)", "setting": "APP/PS1 TG mice; Day 2, dose group +++ (100 mg/kg/day)", "result": "37.6 ± 5.2", "unit": "s"}, {"measurement": "Latency (hidden platform)", "setting": "APP/PS1 TG mice; Day 3, dose group + (10 mg/kg/day)", "result": "31.1 ± 2.5", "unit": "s"}, {"measurement": "Latency (hidden platform)", "setting": "APP/PS1 TG mice; Day 3, dose group ++ (30 mg/kg/day)", "result": "30.6 ± 3.3", "unit": "s"}, {"measurement": "Latency (hidden platform)", "setting": "APP/PS1 TG mice; Day 3, dose group +++ (100 mg/kg/day)", "result": "34.3 ± 4.3", "unit": "s"}, {"measurement": "Latency (hidden platform)", "setting": "APP/PS1 TG mice; Day 4, dose group + (10 mg/kg/day)", "result": "35.1 ± 2.8", "unit": "s"}, {"measurement": "Latency (hidden platform)", "setting": "APP/PS1 TG mice; Day 4, dose group ++ (30 mg/kg/day)", "result": "32.9 ± 3.0", "unit": "s"}, {"measurement": "Latency (hidden platform)", "setting": "APP/PS1 TG mice; Day 4, dose group +++ (100 mg/kg/day)", "result": "32.0 ± 4.0", "unit": "s"}, {"measurement": "Latency (hidden platform)", "setting": "APP/PS1 TG mice; Day 5, dose group + (10 mg/kg/day)", "result": "41.8 ± 3.2", "unit": "s"}, {"measurement": "Latency (hidden platform)", "setting": "APP/PS1 TG mice; Day 5, dose group ++ (30 mg/kg/day)", "result": "36.3 ± 4.2", "unit": "s"}, {"measurement": "Latency (hidden platform)", "setting": "APP/PS1 TG mice; Day 5, dose group +++ (100 mg/kg/day)", "result": "29.6 ± 4.1", "unit": "s"}, {"measurement": "Latency (hidden platform)", "setting": "APP/PS1 TG mice; Day 6, dose group + (10 mg/kg/day)", "result": "32.9 ± 1.9", "unit": "s"}, {"measurement": "Latency (hidden platform)", "setting": "APP/PS1 TG mice; Day 6, dose group ++ (30 mg/kg/day)", "result": "29.3 ± 3.9", "unit": "s"}, {"measurement": "Latency (hidden platform)", "setting": "APP/PS1 TG mice; Day 6, dose group +++ (100 mg/kg/day)", "result": "33.4 ± 4.8", "unit": "s"}, {"measurement": "Latency (hidden platform)", "setting": "APP/PS1 TG mice; Day 7, dose group + (10 mg/kg/day)", "result": "31.7 ± 2.6", "unit": "s"}, {"measurement": "Latency (hidden platform)", "setting": "APP/PS1 TG mice; Day 7, dose group ++ (30 mg/kg/day)", "result": "28.6 ± 3.5", "unit": "s"}, {"measurement": "Latency (hidden platform)", "setting": "APP/PS1 TG mice; Day 7, dose group +++ (100 mg/kg/day)", "result": "30.0 ± 2.6", "unit": "s"}, {"measurement": "Latency (hidden platform)", "setting": "APP/PS1 TG mice; Day 8, dose group + (10 mg/kg/day)", "result": "26.6 ± 3.0", "unit": "s"}, {"measurement": "Latency (hidden platform)", "setting": "APP/PS1 TG mice; Day 8, dose group ++ (30 mg/kg/day)", "result": "25.6 ± 3.0", "unit": "s"}, {"measurement": "Latency (hidden platform)", "setting": "APP/PS1 TG mice; Day 8, dose group +++ (100 mg/kg/day)", "result": "27.9 ± 4.6", "unit": "s"}]}
